The subject of this assay is P388 leukemia ip, CD2F1 mice, survival T/C. The assay is described as follows: NCI In Vivo Anticancer Drug Screen. Data for tumor model P388 Leukemia (intraperitoneal) in CD2F1 (CDF1) mice. The settings on record: endpoint: median survival time, higher = longer survival. An outline of the steps: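 Mice carrying the transplanted tumor received test compound or vehicle. Survival was recorded in each group, and the value is the treated-group measurement divided by that of the vehicle-treated control group.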

The mark [1] stands for this setting: dose: 50.0 mg/kg/injection, schedule: Q01DX009 (ip), vehicle: Klucel (hydroxypropylcellulose) (HPC).
[2] abbreviates: dose: 100.0 mg/kg/injection, schedule: Q01DX009 (ip), vehicle: Klucel (hydroxypropylcellulose) (HPC).
Setting [3] is: dose: 200.0 mg/kg/injection, schedule: Q01DX009 (ip), vehicle: Klucel (hydroxypropylcellulose) (HPC).
Where [4] appears, read: dose: 12.5 mg/kg/injection, schedule: Q01DX009 (ip), vehicle: saline with Tween-80.
The mark [5] stands for this setting: dose: 25.0 mg/kg/injection, schedule: Q01DX009 (ip), vehicle: saline with Tween-80.
[6] abbreviates: dose: 50.0 mg/kg/injection, schedule: Q01DX009 (ip), vehicle: saline with Tween-80.
The mark [7] stands for this setting: dose: 200.0 mg/kg/injection, schedule: Q01DX009 (ip), vehicle: saline with Tween-80.
Setting [8] is: dose: 50.0 mg/kg/injection, schedule: Q01DX005 (ip), vehicle: saline with Tween-80.
[9] abbreviates: dose: 100.0 mg/kg/injection, schedule: Q01DX005 (ip), vehicle: saline with Tween-80.
[10] abbreviates: dose: 200.0 mg/kg/injection, schedule: Q01DX005 (ip), vehicle: saline with Tween-80.
[11] abbreviates: dose: 100.0 mg/kg/injection, schedule: Q01DX009 (ip), vehicle: saline with Tween-80.

T/C data for 19 compounds are collected here from PubChem BioAssay AID330 (DTP/NCI, 2004).

Several values for one entry are separate records, joined by “and”; a condition that tells them apart may be missing. Equal entries are not always repeated. Inconclusive results and toxic doses are left out.

Turning to `COc1cccc2c1C(=O)c1c(O)c3c(c(O)c1C2=O)C[C@@](O)(/C(C)=N\NC=O)C[C@@H]3OC1CC(N)C(O)C(C)O1` (stereo partly drawn), the T/C by setting is: (dose: 0.65 mg/kg/injection, schedule: Q01DX009 (ip), vehicle: saline) 150 % of control; (dose: 1.08 mg/kg/injection, schedule: Q01DX009 (ip), vehicle: saline) 150 % of control; (dose: 1.8 mg/kg/injection, schedule: Q01DX009 (ip), vehicle: saline) 159 % of control; (dose: 3.0 mg/kg/injection, schedule: Q01DX009 (ip), vehicle: saline) 163 % of control; (dose: 3.0 mg/kg/injection, schedule: Q04DX003 (ip), vehicle: saline) 150 % of control; (dose: 5.0 mg/kg/injection, schedule: Q01DX009 (ip), vehicle: saline) 163 % of control. Further, the T/C runs as follows: (dose: 5.0 mg/kg/injection, schedule: Q04DX003 (ip), vehicle: saline) 154 % of control; (dose: 8.0 mg/kg/injection, schedule: Q01DX001 (ip), vehicle: saline) 154 % of control; (dose: 8.0 mg/kg/injection, schedule: Q01DX009 (ip), vehicle: saline) 177 % of control; (dose: 8.0 mg/kg/injection, schedule: Q04DX003 (ip), vehicle: saline) 172 % of control; (dose: 13.3 mg/kg/injection, schedule: Q01DX001 (ip), vehicle: saline) 154 % of control; (dose: 22.2 mg/kg/injection, schedule: Q01DX001 (ip), vehicle: saline) 172 % of control. Besides, the T/C reads like this: (dose: 22.2 mg/kg/injection, schedule: Q04DX003 (ip), vehicle: saline) 190 % of control; (dose: 37.0 mg/kg/injection, schedule: Q01DX001 (ip), vehicle: saline) 181 % of control.
For `CCCCNC(=S)NC1C2CC3CC(C2)CC1C3` (stereo not drawn), the T/C runs as follows: under setting [1], 97 % of control; under setting [2], 98 % of control; under setting [3], 101 % of control.
With `O=C(/C=C/c1ccc(OCc2ccccc2)cc1)c1ccc(C(F)(F)F)cc1`, the T/C was 94 % of control under setting [4]; 100 % of control under setting [5]; 90 % of control and 93 % of control under setting [6]; 95 % of control under setting [7].
`Cc1cc(C)nc(NS(=O)(=O)c2ccc(NC(=O)Nc3cc(F)ccc3F)cc2)n1`: the T/C reads like this: under setting [1], 96 % of control; under setting [2], 95 % of control; under setting [3], 91 % of control.
As for `Cc1cc(Oc2ccc(Cl)cc2NC(=O)Nc2cccc(C(F)(F)F)c2)cc(S(=O)(=O)O)c1Cl`, where the note is “dose: 100.0 mg/kg/injection, schedule: Q01DX001 (ip), vehicle: saline with Tween-80”, the T/C is 100 % of control.
In the case of `Cc1cc2c(c(Br)c1O)Oc1c(cc(C)c(O)c1Br)C21OC(=O)c2ccccc21`, the T/C is 110 % of control under setting [8], 106 % of control under setting [9] and 105 % of control under setting [10].
As to `C=C1[C@H]2C[C@H]2[C@]2(C)C[C@@H]3OC(=O)C(C)=C3C[C@@H]12`, the T/C (dose: 4.88 mg/kg/injection, schedule: Q01DX005 (ip), vehicle: Klucel (hydroxypropylcellulose) (HPC)) is 89 % of control; the T/C (dose: 9.75 mg/kg/injection, schedule: Q01DX005 (ip), vehicle: Klucel (hydroxypropylcellulose) (HPC)) was 94 % of control; the T/C (dose: 39.0 mg/kg/injection, schedule: Q01DX005 (ip), vehicle: Klucel (hydroxypropylcellulose) (HPC)) is 94 % of control; the T/C (dose: 78.0 mg/kg/injection, schedule: Q01DX005 (ip), vehicle: Klucel (hydroxypropylcellulose) (HPC)) is 94 % of control.
On to `CC1(C)Oc2ccccc2O1`, for which the T/C reads like this: under setting [4], 96 % of control; under setting [5], 108 % of control; under setting [6], 107 % of control; under setting [11], 113 % of control.
For `COC(=O)C(Cc1cnc[nH]1)NC(=O)C(Cc1c[nH]c2ccccc12)NC(=O)OC(C)(C)C` (stereo not drawn), the T/C is 100 % of control (dose: 12.5 mg/kg/injection, schedule: Q01DX009 (ip), vehicle: other); 96 % of control (dose: 25.0 mg/kg/injection, schedule: Q01DX009 (ip), vehicle: other); 96 % of control (dose: 50.0 mg/kg/injection, schedule: Q01DX009 (ip), vehicle: other); 95 % of control (dose: 100.0 mg/kg/injection, schedule: Q01DX009 (ip), vehicle: other); 91 % of control (dose: 200.0 mg/kg/injection, schedule: Q01DX009 (ip), vehicle: other).
In the case of `CC1CC(C)NC(C)C1` (stereo not drawn), the T/C (dose: 12.5 mg/kg/injection, schedule: Q01DX009 (ip), vehicle: saline) is 86 % of control; the T/C (dose: 25.0 mg/kg/injection, schedule: Q01DX009 (ip), vehicle: saline) is 103 % of control; the T/C (dose: 50.0 mg/kg/injection, schedule: Q01DX009 (ip), vehicle: saline) was 97 % of control; the T/C (dose: 100.0 mg/kg/injection, schedule: Q01DX009 (ip), vehicle: saline) is 93 % of control.
With `Cc1ccc(OP(=O)(Oc2ccc(C)cc2)Oc2ccc(C)cc2)cc1.Cc1ccc(OP(=O)(Oc2ccc(C)cc2)Oc2ccc(C)cc2)cc1.Cc1ccc(OP(=O)(Oc2ccc(C)cc2)Oc2ccc(C)cc2)cc1.Cc1ccc(OP(=O)(Oc2ccc(C)cc2)Oc2ccc(C)cc2)cc1.[Cu+2].[O-][Cl+3]([O-])([O-])O`, the T/C reads like this: (dose: 50.0 mg/kg/injection, schedule: Q01DX001 (ip), vehicle: Klucel (hydroxypropylcellulose) (HPC)) 96 % of control; (dose: 100.0 mg/kg/injection, schedule: Q01DX001 (ip), vehicle: Klucel (hydroxypropylcellulose) (HPC)) 94 % of control; (dose: 200.0 mg/kg/injection, schedule: Q01DX001 (ip), vehicle: Klucel (hydroxypropylcellulose) (HPC)) 92 % of control.
On to `CC(C)=CCCc1cc(-c2cc(CCC=C(C)C)nc(N)n2)nc(N)n1`, for which the T/C reads like this: (dose: 60.0 mg/kg/injection, schedule: Q01DX005 (ip), vehicle: saline) 99 % of control; (dose: 120.0 mg/kg/injection, schedule: Q01DX005 (ip), vehicle: saline) 103 % of control.
With `Cn1c2ccccc2c2oc(CO)cc(=O)c21`, the T/C (dose: 60.0 mg/kg/injection, schedule: Q01DX005 (ip), vehicle: Klucel (hydroxypropylcellulose) (HPC)) was 95 % of control; the T/C (dose: 120.0 mg/kg/injection, schedule: Q01DX005 (ip), vehicle: Klucel (hydroxypropylcellulose) (HPC)) is 89 % of control; the T/C (dose: 240.0 mg/kg/injection, schedule: Q01DX005 (ip), vehicle: Klucel (hydroxypropylcellulose) (HPC)) was 91 % of control.
As for `C=C=C(C)CN(CC)CC`, the T/C reads like this: (dose: 50.0 mg/kg/injection, schedule: Q01DX005 (ip), vehicle: saline) 108 % of control; (dose: 100.0 mg/kg/injection, schedule: Q01DX005 (ip), vehicle: saline) 107 % of control; (dose: 200.0 mg/kg/injection, schedule: Q01DX005 (ip), vehicle: saline) 108 % of control.
For `COc1ccc(/C=C/C(C)=N/NC(N)=O)cc1OC`, the T/C is 102 % of control under setting [8], 102 % of control under setting [9] and 106 % of control under setting [10].
Regarding `CCCCN1C(=O)N/C(=C/C(=O)OCC)C1=O`, the T/C was 93 % of control (dose: 25.0 mg/kg/injection, schedule: Q01DX009 (ip), vehicle: Klucel (hydroxypropylcellulose) (HPC)); 103 % of control under setting [1]; 102 % of control under setting [2].
`Cc1o[nH]c(=O)c1C`: the T/C was 100 % of control under setting [11]; 100 % of control under setting [7]; 100 % of control (dose: 400.0 mg/kg/injection, schedule: Q01DX009 (ip), vehicle: saline with Tween-80).
Consider `Nc1nc(N)c2nc(-c3ccc([N+](=O)[O-])cc3)c(Cl)nc2n1`, for which the T/C (dose: 15.0 mg/kg/injection, schedule: Q01DX005 (ip), vehicle: saline with Tween-80) was 98 % of control; the T/C (dose: 30.0 mg/kg/injection, schedule: Q01DX005 (ip), vehicle: saline with Tween-80) was 98 % of control; the T/C (dose: 60.0 mg/kg/injection, schedule: Q01DX005 (ip), vehicle: saline with Tween-80) was 95 % of control and 98 % of control; the T/C (dose: 120.0 mg/kg/injection, schedule: Q01DX005 (ip), vehicle: saline with Tween-80) was 92 % of control.
`C=C[C@H]1C2=CCOC(=O)C2=CO[C@@H]1OC1OC(CO)C(O)C(O)C1O` (stereo partly drawn): the T/C reads like this: (dose: 0.75 mg/kg/injection, schedule: Q01DX005 (ip), vehicle: water) 95 % of control; (dose: 1.5 mg/kg/injection, schedule: Q01DX005 (ip), vehicle: water) 95 % of control; (dose: 3.0 mg/kg/injection, schedule: Q01DX005 (ip), vehicle: water) 95 % of control; (dose: 6.0 mg/kg/injection, schedule: Q01DX005 (ip), vehicle: water) 99 % of control.
